Assay results from article PMC10591454 (European journal of medicinal chemistry, 2021).
Converted amounts (≈) assume the structure as drawn. Like-named read-outs stand apart in the source and are kept apart here.

Columns and labels:
CYP3A4 = conditions: cited from earlier work
HBV [1] = assay: HBV replication inhibition assay; type: cell-based, HBV genotype D; conditions: for activity at 10 µM: Hepatitis B virus, HepDES19, 72 h; for anti-HBV activity in words: initial screening, SAR discussion
[2] = tested on: HBV DNA, HBsAg and pregenomic RNA; conditions: after 28 days of treatment with GLS4; cited from earlier work
HBV [3] = conditions: effective concentration 90%; cited from earlier work
HCV genotype 1a = conditions: read-out: GT1a EC50; HCV NS5A inhibitors; cited from earlier work
HCV genotype 1b = conditions: read-out: GT1b EC50; HCV NS5A inhibitors; cited from earlier work

Question: Which “CYP3A4 inhibition in words” value (CYP3A4) does the source give for `C[C@@H](O[C@H]1OCCN(Cc2n[nH]c(=O)[nH]2)[C@H]1c1ccc(F)cc1)c1cc(C(F)(F)F)cc(C(F)(F)F)c1` [Aprepitant] here?
Answer: Its value is “moderate CYP3A4 inhibitor”.

Question: With `Nc1ccn([C@@H]2CS[C@H](CO)O2)c(=O)n1` [Compound 3TC, lamivudine] as the compound, how does the activity at 10 µM (HBV [1]; read-out: Minus DNA (%) (10μM)) read?
Answer: The activity at 10 µM was 54.6%.

Question: What about the activity at 10 µM (HBV [1]; read-out: Plus DNA (%) (10μM)) of the same compound?
Answer: Its activity at 10 µM is 16.2%.

Question: Which “anti-HBV activity in words” value (HBV [1]) does the source give for `CCOC(=O)C1=C(CN2CCC3(CCNC3)C2=O)NC(c2nccs2)=NC1c1ccc(F)cc1Br` (stereo not drawn) [Compound 5b, ethyl 4-(2-bromo-4-fluorophenyl)-6-((1-oxo-2,7-diazaspiro[4.4]nonan-2-yl)methyl)-2-(thiazol-2-yl)-1,4-dihydropyrimidine-5-carboxylate] here?
Answer: Its value is “inactive”.

Question: Which “anti-HBV activity in words” value (HBV [1]) does the source give for `CCOC(=O)C1=C(CN2CC3(CCNC3)CC2=O)NC(c2nccs2)=NC1c1ccc(F)cc1Br` (stereo not drawn) [Compound 5c, ethyl 4-(2-bromo-4-fluorophenyl)-6-((3-oxo-2,7-diazaspiro[4.4]nonan-2-yl)methyl)-2-(thiazol-2-yl)-1,4-dihydropyrimidine-5-carboxylate] here?
Answer: Its value is “inactive”.

Question: Which “anti-HBV activity in words” value (HBV [1]) does the source give for `CCOC(=O)C1=C(CN2CCC3(CCNC3)CC2)NC(c2nccs2)=NC1c1ccc(F)cc1Br` (stereo not drawn) [Compound 5e, ethyl 6-((2,8-diazaspiro[4.5]decan-8-yl)methyl)-4-(2-bromo-4-fluorophenyl)-2-(thiazol-2-yl)-1,4-dihydropyrimidine-5-carboxylate] here?
Answer: Its value is “inactive”.

Question: Which “anti-HBV activity in words” value (HBV [1]) does the source give for `CCOC(=O)C1=C(CN2CCC3(CCNC3)C2)NC(c2nccs2)=NC1c1ccc(F)cc1Br` (stereo not drawn) [Compound 5i, ethyl 6-((2,7-diazaspiro[4.4]nonan-2-yl)methyl)-4-(2-bromo-4-fluorophenyl)-2-(thiazol-2-yl)-1,4-dihydropyrimidine-5-carboxylate] here?
Answer: Its value is “inactive or less potent”.

Question: With `CCOC(=O)C1=C(CN2CCOCC2)NC(c2nccs2)=N[C@H]1c1ccc(F)cc1Br` [GLS4, Ethyl4-(2-bromo-4-fluorophenyl)-6-(morpholinomethyl)-2-(thiazol-2-yl)-1,4-dihydropyrimidine-5-carboxylate] as the compound, how does the “HBV DNA, HBsAg and pregenomic RNA in patients” value [2] read?
Answer: Its value is “strong downward trend”.

Question: What about the EC90 (HBV [3]) of the same compound?
Answer: Its EC90 is 0.0557 µg/mL (≈ 0.109 µM).

Question: What does the source list for `COC(=O)N[C@H](C(=O)N1CC2(CC2)C[C@H]1c1nc(-c2ccc3c(c2)C(F)(F)c2cc(-c4ccc5[nH]c([C@@H]6[C@H]7CC[C@H](C7)N6C(=O)[C@@H](NC(=O)OC)C(C)C)nc5c4)ccc2-3)c[nH]1)C(C)C` [Ledipasvir]?
Answer: EC50 (HCV genotype 1a): 0.031 nM; EC50 (HCV genotype 1b): 0.004 nM

Question: For `C[C@@H](OC[C@@]1(c2ccccc2)CC[C@]2(CCC(=O)N2)CN1)c1cc(C(F)(F)F)cc(C(F)(F)F)c1` [Rolapitant], which “CYP3A4 inhibition in words” value (CYP3A4) is on record?
Answer: The value was “no inhibitory effect”.
